The text below walks through data of publication PMC3838870 (Journal of inorganic biochemistry, 2013).

Like-named read-outs stand apart in the source and are kept apart here.

A short description of data set [1]: Chelator-induced erythrocyte hemolysis. As to conditions: human, human erythrocyte suspension, pH 7.4. The data set is classed as cell-based, human.
In data set [2] the test system is chloroquine-sensitive (3D7) Plasmodium falciparum. Description: Parasite growth inhibition, [3H]-hypoxanthine incorporation, 3D7. The class given is cell-based.
Data set [3] has as its system chloroquine-resistant (7G8) Plasmodium falciparum. The note with it: read-out: Growth inhibition efficacy (IC50), 7G8 P. falciparum; chloroquine-resistant 7G8, mean ± SD (n = 6); previously reported; cited from earlier work.
Data set [4] concerns chloroquine-sensitive (3D7) Plasmodium falciparum. As to conditions: read-out: IC50, 3D7 malaria strain; cited from earlier work.
The test system of data set [5] is non-parasitized human erythrocytes. The data set is described as follows: Effect of chelators on erythrocyte shape. The class given is cell-based. As to conditions: 2.5–15 μM chelator, 48 h, Giemsa staining.
In data set [6] the test system is human erythrocytes. Description: Chelator-induced erythrocyte hemolysis. The class given is cell-based. The note with it: control 0.0175± 0.0005.
Data set [7] deals with synchronized chloroquine-sensitive P. falciparum (3D7). Description: Stage-specific parasite growth. The data set is classed as cell-based, Plasmodium falciparum. As to conditions: chelator 7.5 μM, 3D7 synchronized at ring-stage.

For `CC(=O)N(O)CCCCCNC(=O)CCC(=O)N(O)CCCCCNC(=O)CCC(=O)N(O)CCCCCN` [DFO, desferrioxamine], in data set [1], the hemolysis at 10 μM was 0.0193 ± 0.0005%, the hemolysis at 20 μM is 0.0182 ± 0.0005%, the hemolysis at 30 μM worked out at 0.0186 ± 0.0008% and the hemolysis at 45 μM was determined as 0.0192 ± 0.0001%. In data set [1], the hemolysis at 60 μM is 0.0182 ± 0.0002%. For the same molecule, the IC50 (commonly the concentration at which inhibition is half-maximal) in data set [2] (Plasmodium falciparum, 3D7, 48 h, read-out: Growth inhibition efficacy (IC50), 3D7 P. falciparum) was 23.4 ± 3.4 µM. Also, the IC50 in data set [2] (Plasmodium falciparum, 3D7, 48 h, read-out: Growth inhibition efficacy (IC50), 3D7 P. falciparum, chloroquine-sensitive 3D7, 48 h culture, mean ± SD (n = 6)) turned out to be 23.5 µM. Also, the IC50 in data set [3] is 18.5 µM.

For `Cc1ncc(CO)c(/C=N/NC(=O)c2ccncc2)c1O` [PIH, pyridoxal isonicotinoyl hydrazone], in data set [1], the hemolysis at 10 μM worked out at 0.0195 ± 0.0004%, the hemolysis at 15 μM was 0.0188 ± 0.0003%, the hemolysis at 20 μM worked out at 0.019 ± 0.0006% and the hemolysis at 25 μM turned out to be 0.0193 ± 0.0004%. The hemolysis at 30 μM in data set [1] stood at 0.0192 ± 0.0008%. The IC50 in data set [4] is 50 µM.

Turning to `O=C(NN=Cc1c(O)ccc2ccccc12)c1ccncc1` [compound 311, 2-hydroxy-1-naphthylaldehyde isonicotinoyl hydrazone], in data set [5], the “Effect on erythrocyte shape” value is “no apparent effect on erythrocyte shape”. In addition, the “Supernatant hemoglobin, % MCHC (hemolysis)” value came out at 0.0193±0.0005 % MCHC in data set [6] (chelator 0.5 μM); 0.0195±0.0010 % MCHC in data set [6] (chelator 1 μM); 0.0200±0.0006 % MCHC in data set [6] (chelator 1.5 μM); 0.0203±0.0005 % MCHC in data set [6] (chelator 2 μM); 0.0197±0.0005 % MCHC in data set [6] (chelator 3 μM). Besides, the IC50 in data set [2] (read-out: Growth inhibition efficacy (IC50), 3D7 P. falciparum, chloroquine-sensitive 3D7, 48 h culture, mean ± SD (n = 6)) was 4.45 ± 1.7 µM; in data set [3], 4.46 ± 0.3 µM. Further, in data set [7], the “% Inhibition, rings, 24 hour culture” value came to 99 ± 8.4%.
